Measurements from publication PMC5218480 (PLoS ONE, 2017).

System: MV-4-11 cells
Assay: Gene expression microarray analysis (Affymetrix PrimeView) and GSEA
Type: cell-based, human
Parameters: RFU PODN (11730768_x_at) / Fold change /veh PODN (11730768_x_at) / RFU LINC00158 (11744669_a_at) / Fold change /veh LINC00158 (11744669_a_at) / RFU DUSP10 (11751237_a_at) / Fold change /veh DUSP10 (11751237_a_at) / RFU ID3 (11757404_x_at) / Fold change /veh ID3 (11757404_x_at) / RFU PLEKHG5 (11737974_s_at) / Fold change /veh PLEKHG5 (11737974_s_at) / RFU LRRC4B (11730491_at) / Fold change /veh LRRC4B (11730491_at) / RFU GIMAP4 (11747438_a_at) / Fold change /veh GIMAP4 (11747438_a_at) / RFU KRT8 (11758183_x_at) / Fold change /veh KRT8 (11758183_x_at) / RFU CNN1 (11734310_a_at) / Fold change /veh CNN1 (11734310_a_at) / RFU VPS37D (11726825_at) / Fold change /veh VPS37D (11726825_at) / RFU C10orf10 (11716522_x_at) / Fold change /veh C10orf10 (11716522_x_at) / RFU KIR2DL2 /// KIR2DL4 /// KIR2DL5A /// KIR2DL5B /// KIR2DS1 /// KIR2DS2 /// KIR2DS3 /// KIR2DS4 /// KIR3DL3 /// KIR3DL3 /// KIR3DS1 (11738374_at) / Fold change /veh KIR2DL2 /// KIR2DL4 /// KIR2DL5A /// KIR2DL5B /// KIR2DS1 /// KIR2DS2 /// KIR2DS3 /// KIR2DS4 /// KIR3DL3 /// KIR3DL3 /// KIR3DS1 (11738374_at) / RFU C1QL1 (11718748_at) / Fold change /veh C1QL1 (11718748_at) / RFU TMPRSS4 (11747572_a_at) / Fold change /veh TMPRSS4 (11747572_a_at) / RFU HAMP (11756126_x_at) / Fold change /veh HAMP (11756126_x_at) / RFU RNFT2 (11725882_a_at) / Fold change /veh RNFT2 (11725882_a_at) / RFU NR4A2 (11747474_a_at) / Fold change /veh NR4A2 (11747474_a_at) / RFU ABCC12 (11746883_a_at) / Fold change /veh ABCC12 (11746883_a_at) / RFU TMEM136 (11760407_x_at) / Fold change /veh TMEM136 (11760407_x_at) / RFU CLDN22 /// WWC2 (11732394_at) / Fold change /veh CLDN22 /// WWC2 (11732394_at) / RFU HLA-DPB1 (11760878_x_at) / Fold change /veh HLA-DPB1 (11760878_x_at) / RFU SPINT1 (11716480_a_at) / Fold change /veh SPINT1 (11716480_a_at) / RFU GAP43 (11754022_s_at) / Fold change /veh GAP43 (11754022_s_at) / RFU A4GNT (11735810_at) / Fold change /veh A4GNT (11735810_at) / RFU PRB3 (11715151_x_at) / Fold change /veh PRB3 (11715151_x_at) / RFU TUBB4B (11761932_at) / Fold change /veh TUBB4B (11761932_at) / RFU CAPN14 (11732068_a_at) / Fold change /veh CAPN14 (11732068_a_at) / RFU TMCC2 (11721928_a_at) / Fold change /veh TMCC2 (11721928_a_at) / RFU IRGQ (11745062_a_at) / Fold change /veh IRGQ (11745062_a_at) / RFU FAM174B (11720279_a_at) / Fold change /veh FAM174B (11720279_a_at) / RFU TMPRSS4 (11748680_a_at) / Fold change /veh TMPRSS4 (11748680_a_at) / RFU FAM212B (11763350_a_at) / Fold change /veh FAM212B (11763350_a_at) / RFU PLEKHG5 (11743358_a_at) / Fold change /veh PLEKHG5 (11743358_a_at) / RFU ZSCAN30 (11745921_a_at) / Fold change /veh ZSCAN30 (11745921_a_at) / RFU CMKLR1 (11741424_a_at) / Fold change /veh CMKLR1 (11741424_a_at) / RFU LOC101060620 /// MAPK8IP1 (11723275_at) / Fold change /veh LOC101060620 /// MAPK8IP1 (11723275_at) / RFU SPTSSB (11747773_x_at) / Fold change /veh SPTSSB (11747773_x_at) / RFU PRSS12 (11739890_at) / Fold change /veh PRSS12 (11739890_at) / RFU BIN1 (11741810_x_at) / Fold change /veh BIN1 (11741810_x_at) / RFU WNT11 (11732464_a_at) / Fold change /veh WNT11 (11732464_a_at) / RFU C10orf10 (11716521_a_at) / Fold change /veh C10orf10 (11716521_a_at) / RFU C5orf56 (11738089_at) / Fold change /veh C5orf56 (11738089_at) / RFU CYB561 (11721691_x_at) / Fold change /veh CYB561 (11721691_x_at) / RFU ANKRD19P (11752326_a_at) / Fold change /veh ANKRD19P (11752326_a_at) / RFU OR2T12 /// OR2T33 /// OR2T8 (11738714_s_at) / Fold change /veh OR2T12 /// OR2T33 /// OR2T8 (11738714_s_at) / RFU VCAN (11748164_a_at) / Fold change /veh VCAN (11748164_a_at) / RFU JSRP1 (11732532_at) / Fold change /veh JSRP1 (11732532_at) / RFU KRTAP10-11 (11738290_x_at) / Fold change /veh KRTAP10-11 (11738290_x_at) / RFU MYO3A (11730013_a_at) / Fold change /veh MYO3A (11730013_a_at) / RFU EBF3 (11725865_a_at) / Fold change /veh EBF3 (11725865_a_at) / RFU CAMK2N1 (11719241_x_at) / Fold change /veh CAMK2N1 (11719241_x_at) / RFU C5orf56 (11738088_a_at) / Fold change /veh C5orf56 (11738088_a_at) / RFU OLFML3 (11715873_a_at) / Fold change /veh OLFML3 (11715873_a_at) / RFU LOC100653217 /// NTM (11731650_a_at) / Fold change /veh LOC100653217 /// NTM (11731650_a_at) / RFU MAPK11 (11762145_a_at) / Fold change /veh MAPK11 (11762145_a_at) / RFU FIZ1 (11724087_x_at) / Fold change /veh FIZ1 (11724087_x_at) / RFU OASL (11726364_x_at) / Fold change /veh OASL (11726364_x_at) / RFU SOX15 (11748057_x_at) / Fold change /veh SOX15 (11748057_x_at) / RFU CD79A (11719716_a_at) / Fold change /veh CD79A (11719716_a_at) / RFU HIST1H1D (11736915_at) / Fold change /veh HIST1H1D (11736915_at) / RFU CASKIN2 (11723855_a_at) / Fold change /veh CASKIN2 (11723855_a_at) / RFU LOC730098 (11760151_x_at) / Fold change /veh LOC730098 (11760151_x_at) / RFU OR4N2 (11742367_at) / Fold change /veh OR4N2 (11742367_at) / RFU PRRT2 (11749266_a_at) / Fold change /veh PRRT2 (11749266_a_at) / RFU SNX32 (11753110_a_at) / Fold change /veh SNX32 (11753110_a_at) / RFU CDHR5 (11726645_a_at) / Fold change /veh CDHR5 (11726645_a_at) / RFU RCAN1 (11760418_a_at) / Fold change /veh RCAN1 (11760418_a_at) / RFU FAM167A (11723789_a_at) / Fold change /veh FAM167A (11723789_a_at) / RFU FAM26E (11764081_at) / Fold change /veh FAM26E (11764081_at) / RFU ISYNA1 (11749810_s_at) / Fold change /veh ISYNA1 (11749810_s_at) / RFU ACY1 (11761880_at) / Fold change /veh ACY1 (11761880_at) / RFU 11764098_at / Fold change /veh 11764098_at / RFU SAMD14 (11745864_x_at) / Fold change /veh SAMD14 (11745864_x_at) / RFU NPB (11741838_a_at) / Fold change /veh NPB (11741838_a_at) / RFU TMPRSS6 (11731388_a_at) / Fold change /veh TMPRSS6 (11731388_a_at) / RFU KRTAP10-2 (11738614_at) / Fold change /veh KRTAP10-2 (11738614_at) / RFU ARHGAP8 /// PRR5-ARHGAP8 (11727945_x_at) / Fold change /veh ARHGAP8 /// PRR5-ARHGAP8 (11727945_x_at) / RFU KRTAP5-7 /// NADSYN1 (11734609_at) / Fold change /veh KRTAP5-7 /// NADSYN1 (11734609_at) / RFU RASL12 (11751679_a_at) / Fold change /veh RASL12 (11751679_a_at) / RFU CDKN2B (11736163_a_at) / Fold change /veh CDKN2B (11736163_a_at) / RFU PRF1 (11729649_at) / Fold change /veh PRF1 (11729649_at) / RFU, ZNF638 /// ZNF638-IT1 / Fold change vs veh, ZNF638 /// ZNF638-IT1 / RFU, PANK3 / Fold change vs veh, PANK3 / RFU, SH3YL1 / Fold change vs veh, SH3YL1 / RFU, ZEB2 / Fold change vs veh, ZEB2 / RFU, NRIP1 / Fold change vs veh, NRIP1 / RFU, PTTG1IP / Fold change vs veh, PTTG1IP / RFU, CAPN2 / Fold change vs veh, CAPN2 / RFU, MED14 / Fold change vs veh, MED14 / RFU, SNORA58 / Fold change vs veh, SNORA58 / RFU, C1orf63 / Fold change vs veh, C1orf63 / RFU, LRRFIP1 / Fold change vs veh, LRRFIP1 / RFU, NDUFAF7 / Fold change vs veh, NDUFAF7 / RFU, SLC12A2 / Fold change vs veh, SLC12A2 / RFU, IBTK / Fold change vs veh, IBTK / RFU, ESF1 / Fold change vs veh, ESF1 / Fold change vs veh, TMEM50B / RFU, TAOK1 / Fold change vs veh, TAOK1 / RFU, ACBD3 / Fold change vs veh, ACBD3 / RFU, TMA16 / Fold change vs veh, TMA16 / RFU, RWDD3 / Fold change vs veh, RWDD3 / RFU, BCAT1 / Fold change vs veh, BCAT1 / RFU, EDEM3 / Fold change vs veh, EDEM3 / RFU, TMEM33 / Fold change vs veh, TMEM33 / RFU, WDR75 / Fold change vs veh, WDR75 / RFU, AHCTF1 / Fold change vs veh, AHCTF1 / RFU, TFRC / Fold change vs veh, TFRC / RFU, ZDHHC17 / Fold change vs veh, ZDHHC17 / RFU, NOM1 / Fold change vs veh, NOM1 / RFU, ARL8B / Fold change vs veh, ARL8B / RFU, ZBTB11 / Fold change vs veh, ZBTB11 / RFU, TAMM41 / Fold change vs veh, TAMM41 / RFU, KIAA1704 /// LOC100996395 / Fold change vs veh, KIAA1704 /// LOC100996395 / RFU, ING1 / Fold change vs veh, ING1 / RFU, TRMT61B / Fold change vs veh, TRMT61B / RFU, FUBP3 / Fold change vs veh, FUBP3 / RFU, TP53 / Fold change vs veh, TP53 / RFU, TNKS2 / Fold change vs veh, TNKS2 / RFU, ZFP14 / Fold change vs veh, ZFP14 / RFU, ACTR2 / Fold change vs veh, ACTR2 / RFU, PPP3R1 / Fold change vs veh, PPP3R1 / RFU, PIK3R1 / Fold change vs veh, PIK3R1 / RFU, HNRNPA1 / Fold change vs veh, HNRNPA1 / RFU, RNF170 / Fold change vs veh, RNF170 / RFU, ZNF28 / Fold change vs veh, ZNF28 / RFU, RNGTT / Fold change vs veh, RNGTT / RFU, OGT / Fold change vs veh, OGT / RFU, BRD1 / Fold change vs veh, BRD1 / RFU, MARS / Fold change vs veh, MARS / RFU, ZNF655 / Fold change vs veh, ZNF655 / RFU, FAHD1 / Fold change vs veh, FAHD1 / RFU, BDP1 / Fold change vs veh, BDP1 / RFU, LRRCC1 / Fold change vs veh, LRRCC1 / RFU, ARID1A / Fold change vs veh, ARID1A / RFU, ZNF146 / Fold change vs veh, ZNF146 / RFU, ZNF330 / Fold change vs veh, ZNF330 / RFU, GPN3 / Fold change vs veh, GPN3 / RFU, C9orf123 / Fold change vs veh, C9orf123 / RFU, N4BP2L2 / Fold change vs veh, N4BP2L2 / RFU, ARFIP1 / Fold change vs veh, ARFIP1 / RFU, FAM179B / Fold change vs veh, FAM179B / RFU, BCL10 / Fold change vs veh, BCL10 / RFU, UHRF1BP1L / Fold change vs veh, UHRF1BP1L / RFU, BET1 / Fold change vs veh, BET1 / RFU, CNOT2 / Fold change vs veh, CNOT2 / RFU, ZNF268 / Fold change vs veh, ZNF268 / Fold change vs veh, ZNF507 / RFU, DGCR2 / Fold change vs veh, DGCR2 / RFU, WDSUB1 / Fold change vs veh, WDSUB1 / Fold change vs veh, HSP90B1 /// MIR3652 / RFU, ADSS / Fold change vs veh, ADSS / RFU, GK / Fold change vs veh, GK / RFU, ZNF148 / Fold change vs veh, ZNF148 / RFU, TAF9 / Fold change vs veh, TAF9 / RFU, SLC1A5 / Fold change vs veh, SLC1A5 / RFU, SLMO2 / Fold change vs veh, SLMO2 / RFU, ABCC4 / Fold change vs veh, ABCC4 / RFU, LOC101060439 /// RAP1B / Fold change vs veh, LOC101060439 /// RAP1B / RFU, RFX7 / Fold change vs veh, RFX7 / RFU, GTPBP10 / Fold change vs veh, GTPBP10 / RFU, CNEP1R1 / Fold change vs veh, CNEP1R1 / RFU, BIVM-ERCC5 /// ERCC5 / Fold change vs veh, BIVM-ERCC5 /// ERCC5 / RFU, ILF3 / Fold change vs veh, ILF3 / RFU 11762660_at / Fold change /veh 11762660_at / RFU VCAN (11757783_s_at) / Fold change /veh VCAN (11757783_s_at) / RFU DDX43 (11728927_at) / Fold change /veh DDX43 (11728927_at) / RFU KRT8 (11758188_x_at) / Fold change /veh KRT8 (11758188_x_at) / RFU NKD1 (11759106_at) / Fold change /veh NKD1 (11759106_at) / RFU SRD5A1 (11742802_a_at) / Fold change /veh SRD5A1 (11742802_a_at) / RFU TPSAB1 /// TPSB2 (11721975_s_at) / Fold change /veh TPSAB1 /// TPSB2 (11721975_s_at) / RFU GSTM3 (11746129_a_at) / Fold change /veh GSTM3 (11746129_a_at) / RFU IL23R (11737362_x_at) / Fold change /veh IL23R (11737362_x_at) / RFU TMEM51 (11727254_a_at) / Fold change /veh TMEM51 (11727254_a_at) / RFU PIWIL2 (11732686_x_at) / Fold change /veh PIWIL2 (11732686_x_at) / RFU ORM1 (11744905_x_at) / Fold change /veh ORM1 (11744905_x_at) / RFU CCDC152 (11743942_at) / Fold change /veh CCDC152 (11743942_at) / RFU ECM1 (11717891_a_at) / Fold change /veh ECM1 (11717891_a_at) / RFU IL23R (11748794_a_at) / Fold change /veh IL23R (11748794_a_at) / RFU TNFAIP8L3 (11732012_x_at) / Fold change /veh TNFAIP8L3 (11732012_x_at) / RFU MBOAT4 (11741988_at) / Fold change /veh MBOAT4 (11741988_at) / RFU 11764193_at / Fold change /veh 11764193_at / RFU TMEM53 (11763286_at) / Fold change /veh TMEM53 (11763286_at) / RFU MAGEB2 (11727129_at) / Fold change /veh MAGEB2 (11727129_at) / RFU TMEM200A (11744735_a_at) / Fold change /veh TMEM200A (11744735_a_at) / RFU CCDC152 (11751479_a_at) / Fold change /veh CCDC152 (11751479_a_at) / RFU FAM211A (11726209_a_at) / Fold change /veh FAM211A (11726209_a_at) / RFU RGS16 (11746705_a_at) / Fold change /veh RGS16 (11746705_a_at) / RFU VCAN (11755009_s_at) / Fold change /veh VCAN (11755009_s_at) / RFU RHOB (11743442_s_at) / Fold change /veh RHOB (11743442_s_at) / RFU RGS16 (11720943_a_at) / Fold change /veh RGS16 (11720943_a_at) / RFU RGS16 (11720944_at) / Fold change /veh RGS16 (11720944_at) / RFU, VPS4B / Fold change vs veh, VPS4B / RFU, CREB1 / Fold change vs veh, CREB1 / RFU, DNAJC13 / Fold change vs veh, DNAJC13 / RFU, GNAQ / Fold change vs veh, GNAQ / RFU, CDK5R1 / Fold change vs veh, CDK5R1 / RFU, ZRANB3 / Fold change vs veh, ZRANB3 / RFU, CUL4A / Fold change vs veh, CUL4A / RFU, CCNY / Fold change vs veh, CCNY / RFU, UFL1 / Fold change vs veh, UFL1 / RFU, COG3 / Fold change vs veh, COG3 / RFU, DIAPH2 / Fold change vs veh, DIAPH2 / RFU, SKA2 / Fold change vs veh, SKA2 / RFU, AFF3 / Fold change vs veh, AFF3 / RFU, LMF1 / Fold change vs veh, LMF1 / RFU, IPO11 / Fold change vs veh, IPO11 / RFU, DFFB / Fold change vs veh, DFFB / RFU, FOXP1 / Fold change vs veh, FOXP1 / RFU, CARD8 / Fold change vs veh, CARD8 / RFU, STRN3 / Fold change vs veh, STRN3 / RFU, ADK / Fold change vs veh, ADK / RFU, RASSF2 / Fold change vs veh, RASSF2 / RFU, WIPF1 / Fold change vs veh, WIPF1 / RFU, LARP1B / Fold change vs veh, LARP1B / RFU, RASA1 / Fold change vs veh, RASA1 / RFU, RB1 / Fold change vs veh, RB1 / RFU, PPFIA1 / Fold change vs veh, PPFIA1 / RFU, MAT2A / Fold change vs veh, MAT2A / RFU, CCT5 / Fold change vs veh, CCT5 / RFU, WDR92 / Fold change vs veh, WDR92 / RFU, CUX1 / Fold change vs veh, CUX1 / RFU, TTC7A / Fold change vs veh, TTC7A / RFU, TMEM135 / Fold change vs veh, TMEM135 / RFU, DEPTOR / Fold change vs veh, DEPTOR / RFU, CPM / Fold change vs veh, CPM / RFU, DNAJB6 / Fold change vs veh, DNAJB6 / RFU, CACNA2D3 / Fold change vs veh, CACNA2D3 / RFU, DTX4 / Fold change vs veh, DTX4 / RFU, TFCP2 / Fold change vs veh, TFCP2 / RFU, GMCL1 /// GMCL1P1 / Fold change vs veh, GMCL1 /// GMCL1P1 / RFU, AEBP2 / Fold change vs veh, AEBP2 / RFU, SNHG1 /// SNORD22 /// SNORD25 /// SNORD26 /// SNORD27 /// SNORD28 /// SNORD29 /// SNORD31 / Fold change vs veh, SNHG1 /// SNORD22 /// SNORD25 /// SNORD26 /// SNORD27 /// SNORD28 /// SNORD29 /// SNORD31 / Fold change (Aza/veh), C12orf56 (ProbeSet 11735607_a_at) / Fold change (ACY-1035/veh), C12orf56 (ProbeSet 11735607_a_at) / Fold change (Aza/veh), FGFR1OP (ProbeSet 11751329_s_at) / Fold change (ACY-1035/veh), FGFR1OP (ProbeSet 11751329_s_at) / Fold change (Aza/veh), VPS36 (ProbeSet 11739960_a_at) / Fold change (ACY-1035/veh), VPS36 (ProbeSet 11739960_a_at) / RFU SYPL1 (11715823_x_at) / Fold change /veh SYPL1 (11715823_x_at) / RFU IGFBP7 (11715501_s_at) / Fold change /veh IGFBP7 (11715501_s_at) / RFU REEP3 (11722064_at) / Fold change /veh REEP3 (11722064_at) / RFU IGLL1 (11728026_x_at) / Fold change /veh IGLL1 (11728026_x_at): dose or concentration left out as unconfirmed
Conditions: MV-4-11 cells, 48 hours

## Nc1ccc(-c2cccs2)cc1NC(=O)c1ccc2c(c1)cc(C1CC1)n2CCN1CCOCC1 [ACY-1035]
  RFU KIR2DL2 /// KIR2DL4 /// KIR2DL5A /// KIR2DL5B /// KIR2DS1 /// KIR2DS2 /// KIR2DS3 /// KIR2DS4 /// KIR3DL3 /// KIR3DL3 /// KIR3DS1 (11738374_at): 11.07 RFU
